Results published in the OligoGym collection.
After the bases stand the sugars from the 5' end (letter, count) and the backbone: PS all phosphorothioate, else s phosphorothioate and o phosphodiester by linkage. Methylation of C is not given here. l = locked nucleic acid (LNA); d = 2'-deoxy (DNA)

Biological target: SNHG14
Details: ASO
[1] = Mouse Primary Neuronal Cell, 0.005 µM

| Sequence | target mRNA inhibition (Human Neuronal Cell, 7.5 µM) | target mRNA inhibition (Human Neuronal Cell, 0.2 µM) | target mRNA inhibition (Human Neuronal Cell, 1 µM) | further results |
| --- | --- | --- | --- | --- |
| AAAATCTCAACTACCATTT (sugars l3 d10 l6, PS) | 48% |  |  |  |
| AAAATCTCAACTACCATTT (sugars l6 d9 l4, PS) | 23% |  |  |  |
| AAAATCTCAACTACCATTT (sugars llddlldddddddlldlll, PS) | 52% |  |  |  |
| AAAATCTCAACTACCATTTT (sugars lddllldddddddldldlll, PS) | 36% |  |  |  |
| AAAATCTCAACTACCATTTT (sugars llddllddddddddddldll, PS) | 23% |  |  |  |
| AAAATTATTTATACACCATC (sugars l1 d2 l2 d9 l6, PS) | 56% |  |  |  |
| AAAATTATTTATACACCATC (sugars ldlllllddddddlldddll, PS) | 61% |  |  |  |
| AAAATTATTTATACACCATC (sugars lllllllddddddldlddll, PS) | 49% |  |  |  |
| AAACTCTTGCATCTACT (sugars l2 d13 l2, PS) |  | 19% | 41% |  |
| AAACTGTACACCTACT (sugars l2 d10 l4, PS) |  | 31% | 44% |  |
| AAAGATCATTCTCAACAA (sugars l5 d10 l3, PS) | 64% |  |  |  |
| AAATATTGCCACCATT (sugars l2 d10 l4, PS) |  | 51% | 63% |  |
| AAATCTCAACTACCATTTTT (sugars ldlddldddddddllddlll, PS) | 29% |  |  |  |
| AAATCTCAACTACCATTTTT (sugars ldllldddddddddddldll, PS) | 45% |  |  |  |
| AAATCTCAACTACCATTTTT (sugars llldldddddddddlldlll, PS) | -2% |  |  |  |
| AAATCTCAACTACCATTTTT (sugars llldldlddddddddddlll, PS) | 34% |  |  |  |
| AAATTTCCAAACCTTTC (sugars l2 d11 l4, PS) |  | 42% | 53% |  |
| AAGATCATTCTCAACAAT (sugars lllldldddddddlldll, PS) | 19% |  |  |  |
| AATTATTTATACACCATCAT (sugars lddddldddddddlldldll, PS) | 60% |  |  |  |
| AATTATTTATACACCATCAT (sugars lldldlddddddddllldll, PS) | 59% |  |  |  |
| AATTTTTTTCTTACTATCTT (sugars l1 d12 l1 d2 l4, PS) | 62% |  |  |  |
| AATTTTTTTCTTACTATCTT (sugars ldlllldddddddlddddll, PS) | 55% |  |  |  |

| Sequence | target mRNA inhibition (Human Neuronal Cell, 7.5 µM) | target mRNA inhibition (Human Neuronal Cell, 0.2 µM) | target mRNA inhibition (Human Neuronal Cell, 1 µM) | further results |
| --- | --- | --- | --- | --- |
| AATTTTTTTCTTACTATCTT (sugars llddlldddddddldlldll, PS) | 61% |  |  |  |
| AATTTTTTTCTTACTATCTT (sugars lldldlddddddddlddlll, PS) | 43% |  |  |  |
| ACAACTTCTATCATAC (sugars l3 d10 l3, PS) |  | 44% | 55% |  |
| ACACATCTTGTATACA (sugars l4 d10 l2, PS) |  | 49% | 56% |  |
| ACATCTCATACTTGCT (sugars l4 d10 l2, PS) |  |  |  | target mRNA inhibition [1]: 94.8% |
| ACATCTCATACTTGCTT (sugars l2 d13 l2, PS) |  | 1% | 8% | target mRNA inhibition (Human Neuronal Cell, 5 µM): 7%; target mRNA inhibition [1]: 90.7% |
| ACATTATTAACCACCT (sugars l3 d10 l3, PS) |  | 62% | 64% |  |
| ACCACCTTAAGTAACA (sugars l4 d10 l2, PS) |  | 27% | 33% |  |
| ACCTACATCTCATACT (sugars l4 d10 l2, PS) |  | 14% | -14% | target mRNA inhibition (Human Neuronal Cell, 5 µM): 33%; target mRNA inhibition [1]: 93.8% |
| ACTCTGCAATACACCAA (sugars l4 d8 l1 d2 l2, PS) | 57% |  |  |  |
| ACTCTGCAATACACCAA (sugars lldllddddddllddll, PS) | 38% |  |  |  |
| ACTGTTTATACCCTTTC (sugars l1 d11 l1 d1 l3, PS) | 59% |  |  |  |
| ACTGTTTATACCCTTTC (sugars l1 d11 l1 d2 l2, PS) | 56% |  |  |  |
| ACTGTTTATACCCTTTC (sugars lddldddddddldddll, PS) | 53% |  |  |  |
| ACTGTTTATACCCTTTCC (sugars l1 d2 l1 d12 l2, PS) | 46% |  |  |  |
| ACTGTTTATACCCTTTCC (sugars l2 d14 l2, PS) |  | 36% | 50% |  |
| ACTGTTTATACCCTTTCC (sugars lddlddddddddddldll, PS) | 62% |  |  |  |
| ACTTAATTATACTTCC (sugars l4 d10 l2, PS) |  | 62% | 64% |  |
| ACTTCACACCTATTATAT (sugars l3 d12 l3, PS) |  | 21% | 45% |  |
| AGATCATTCTCAACAATT (sugars l3 d1 l1 d9 l4, PS) | 43% |  |  |  |
| AGATCATTCTCAACAATT (sugars ldldlldddddddlllll, PS) | 32% |  |  |  |
